The test system of data set [1] is Gli-luciferase activity in TMHh12 cells. Kind of data set: Reporter gene assay (RGA) in TMHh12 cells, antagonism of Gli-luciferase activity in presence of Smo agonist. The data set is classed as cell-based. As to the method:
Activity of the compounds was evaluated using a reporter gene assay (RGA) in TMHh12 cells.
For orientation: A reporter such as luciferase makes a cellular process visible.

Data set [2] deals with human Smoothened receptor (Homo sapiens, UniProt Q99835). In words: Smo binding assay, displacement of radio-labeled smoothened agonist, filter binding format (human). The conditions noted are these: read-out: Human Smo bdg., IC50. The source says:
(§1) A Smo binding assay was developed using radio-labeled smoothened agonist for compound competition. Table 10 lists the IC50 for displacement of a small molecule agonist of Smoothened determined in a filter binding format for the mouse and human Smoothened receptor.

The target in data set [3] is mouse Smoothened receptor (Mus musculus, UniProt P56726). Kind of data set: Smo binding assay, displacement of radio-labeled smoothened agonist, filter binding format (mouse). The conditions noted are these: read-out: Mouse Smo bdg., IC50.
Sequence of mouse Smoothened receptor (P56726 33-793): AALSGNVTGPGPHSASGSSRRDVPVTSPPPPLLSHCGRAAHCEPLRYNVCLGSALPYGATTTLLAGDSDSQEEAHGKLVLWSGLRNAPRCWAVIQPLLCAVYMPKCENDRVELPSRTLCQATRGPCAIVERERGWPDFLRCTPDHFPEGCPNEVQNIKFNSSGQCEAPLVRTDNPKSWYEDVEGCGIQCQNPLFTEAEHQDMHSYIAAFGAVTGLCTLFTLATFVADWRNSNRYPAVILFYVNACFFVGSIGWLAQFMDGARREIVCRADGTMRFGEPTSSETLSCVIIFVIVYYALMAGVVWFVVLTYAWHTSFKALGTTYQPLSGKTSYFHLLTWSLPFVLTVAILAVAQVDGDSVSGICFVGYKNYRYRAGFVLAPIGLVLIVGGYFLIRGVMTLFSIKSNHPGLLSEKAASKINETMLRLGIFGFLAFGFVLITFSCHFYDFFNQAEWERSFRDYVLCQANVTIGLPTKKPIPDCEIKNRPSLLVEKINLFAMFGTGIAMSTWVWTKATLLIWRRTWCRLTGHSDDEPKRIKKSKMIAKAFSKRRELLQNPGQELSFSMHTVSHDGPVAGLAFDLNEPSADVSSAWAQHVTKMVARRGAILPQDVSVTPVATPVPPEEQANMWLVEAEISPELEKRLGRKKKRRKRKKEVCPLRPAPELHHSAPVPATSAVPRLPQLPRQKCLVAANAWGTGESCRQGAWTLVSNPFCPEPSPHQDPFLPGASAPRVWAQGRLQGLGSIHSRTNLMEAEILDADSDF
Text: as §1

Data set [4] is described as follows: equilibrium solubility at pH 6.8. The conditions noted are these: aqueous buffer, thermodynamic from solid, examples of the present invention. Format: physicochemical.
The mark [5] stands for this setting: read-out: RGA (1 nM Smo agonist) IC50, 1 nM Smo agonist, Table 10, values as ranges.
Where [6] appears, read: read-out: RGA (25 nM Smo agonist) IC50, 25 nM Smo agonist, Table 10, values as ranges.
The mark [7] stands for this setting: TMHh12, read-out: RGA (1 nM Smo agonist) IC50, 1 nM Smo agonist, examples of the present invention, exact values.
Where [8] appears, read: TMHh12, read-out: RGA (25 nM Smo agonist) IC50, 25 nM Smo agonist, examples of the present invention, exact values.
[9] abbreviates: examples of the present invention, exact values.

≈ marks a conversion by molar mass, not a printed value. Where two headings read alike, the source gives them in different places.

Sequence of human Smoothened receptor (Q99835 28-787): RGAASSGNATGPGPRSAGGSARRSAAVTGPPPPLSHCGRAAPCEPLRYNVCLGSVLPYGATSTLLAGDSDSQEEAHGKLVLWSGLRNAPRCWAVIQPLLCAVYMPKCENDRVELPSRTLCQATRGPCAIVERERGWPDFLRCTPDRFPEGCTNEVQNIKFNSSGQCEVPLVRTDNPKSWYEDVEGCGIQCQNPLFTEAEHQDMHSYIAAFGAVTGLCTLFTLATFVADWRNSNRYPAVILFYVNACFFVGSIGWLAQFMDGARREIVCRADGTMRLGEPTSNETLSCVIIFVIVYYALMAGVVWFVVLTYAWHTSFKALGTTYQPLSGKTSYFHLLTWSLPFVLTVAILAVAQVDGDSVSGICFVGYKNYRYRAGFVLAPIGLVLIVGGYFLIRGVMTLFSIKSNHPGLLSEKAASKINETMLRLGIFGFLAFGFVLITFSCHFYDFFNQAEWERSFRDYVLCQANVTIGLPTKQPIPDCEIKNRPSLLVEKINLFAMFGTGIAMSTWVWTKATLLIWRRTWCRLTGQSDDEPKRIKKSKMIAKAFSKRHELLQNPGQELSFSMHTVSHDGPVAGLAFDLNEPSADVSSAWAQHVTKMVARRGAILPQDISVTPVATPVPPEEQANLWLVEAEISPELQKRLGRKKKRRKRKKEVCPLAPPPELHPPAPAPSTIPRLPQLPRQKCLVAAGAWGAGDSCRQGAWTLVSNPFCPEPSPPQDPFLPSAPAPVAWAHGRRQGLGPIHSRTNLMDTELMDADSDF

Consider “4,5-Dimethyl-3-(1-methyl-1H-tetrazol-5-ylmethyl)-6-[4-(5-trifluoromethyl-pyridin-2-yl)-piperazin-1-yl]-pyridazine & 4,5-Dimethyl-3-(2H-methyl-2H-tetrazol-5-ylmethyl)-6-[4-(5-trifluoromethyl-pyridin-2-yl)-piperazin-1-yl]-pyridazine [160/161]”, for which the IC50 – broadly, the point on the concentration scale where inhibition reaches its midpoint – in data set [1] (setting [5]) was 1 to 10 nM; in data set [1] (setting [6]) it was 1 to 25 nM; in data set [2] (Table 10, values as ranges) it was 1 to 10 nM; in data set [3] (Table 10, values as ranges), 1 to 10 nM.

As to `Cc1c(Oc2ccccc2)nnc(N2CCN(c3cnc(C(C)(C)O)cn3)[C@H](C)C2)c1C` [Example 2, 2-[(R)-4-(4,5-Dimethyl-6-phenoxy-pyridazin-3-yl)-2-methyl-3,4,5,6-tetra-hydro-2H-[1,2′]bipyrazinyl-5′-yl]-propan-2-ol], the IC50 in data set [1] (setting [7]) is 2 nM; in data set [1] (setting [8]) it was 23 nM; in data set [2] (setting [9]) it was 4 nM; in data set [3] (setting [9]), 8 nM.

Take `COC(=O)c1cnc(N2CCN(c3nnc(-c4ccc(F)c(Cl)c4)c(C)c3C)CC2)nc1C(F)(F)F` [Example 20]: the IC50 in data set [1] (setting [5]) was under 0.1 nM; in data set [1] (setting [6]), 0.1 to 1 nM; in data set [2] (Table 10, values as ranges) it was under 0.1 nM; in data set [3] (Table 10, values as ranges), under 0.1 nM.

For the compound `Cc1c(C(O)c2ccccc2)nnc(N2CCN(c3cnc(C(C)(C)O)cn3)[C@H](C)C2)c1C` (stereo partly shown) [Example 48], the IC50 in data set [1] (setting [7]) is 2 nM; in data set [1] (setting [8]), 25 nM; in data set [2] (setting [9]) it was 5 nM; in data set [3] (setting [9]), 8 nM. Also, the thermodynamic solubility – broadly, solubility found after equilibrating the solid with the medium – in data set [4] was 425 µM (≈ 191 µg/mL).

As to `Cc1c(Cc2ccncc2)nnc(N2CCN(c3cnc(C(C)(C)O)cn3)[C@H](C)C2)c1C` [Example 50, 2-[(R)-4-(4,5-Dimethyl-6-pyridin-4-ylmethyl-pyridazin-3-yl)-2-methyl-3,4,5,6-tetrahydro-2H-[1,2′]bipyrazinyl-5′-yl]-propan-2-ol], the IC50 in data set [1] (setting [7]) was found to be 6 nM; in data set [1] (setting [8]) it was 114 nM; in data set [2] (setting [9]), 29 nM; in data set [3] (setting [9]), 32 nM. Further, the thermodynamic solubility in data set [4] was over 1000 µM.

In the case of `Cc1c(Cc2ccccn2)nnc(N2CCN(c3cnc(C(C)(C)O)cn3)[C@H](C)C2)c1C` [Example 54, 2-[(R)-4-(4,5-Dimethyl-6-pyridin-2-ylmethyl-pyridazin-3-yl)-2-methyl-3,4,5,6-tetrahydro-2H-[1,2′]bipyrazinyl-5′-yl]-propan-2-ol], the IC50 was determined as 7 nM in data set [1] (setting [7]), 83 nM in data set [1] (setting [8]), 22 nM in data set [2] (setting [9]) and 30 nM in data set [3] (setting [9]). In data set [4], this compound gave a solubility (thermodynamic) of 619 µM (≈ 268 µg/mL).

Take `Cc1c(Cc2ccccc2)nnc(N2CCC(C)(c3nc4cnccc4[nH]3)CC2)c1C` [Example 59, 2-[1-(6-Benzyl-4,5-dimethyl-pyridazin-3-yl)-4-methyl-piperidin-4-yl]-1H-imidazo[4,5-c]pyridine]: the IC50 in data set [1] (setting [5]) was 1 to 10 nM; in data set [1] (setting [6]), 1 to 25 nM; in data set [2] (Table 10, values as ranges), 1 to 10 nM; in data set [3] (Table 10, values as ranges), 1 to 25 nM.

For `Cc1c(Cc2ccccc2)nnc(N2CCN(c3cnc(C(C)(C)O)cn3)[C@H](C)C2)c1C` [Example 88, 2-[(R)-4-(6-Benzyl-4,5-dimethyl-pyridazin-3-yl)-2-methyl-3,4,5,6-tetrahydro-2H-[1,2′]bipyrazinyl-5′-yl]-propan-2-ol], the IC50 in data set [1] (setting [7]) came to 1 nM; in data set [1] (setting [8]), 14 nM; in data set [2] (setting [9]) it was 9 nM; in data set [3] (setting [9]) it was 3 nM. The thermodynamic solubility in data set [4] turned out to be 44 µM (≈ 19 µg/mL).

For `Cc1c(Cc2ccccc2)nnc(N2CCN(c3cnc(C(C)(C)O)cn3)CC2)c1C` [Example 89], the IC50 in data set [1] (setting [7]) came to 2 nM; in data set [1] (setting [8]), 60 nM; in data set [2] (setting [9]) it was 11 nM; in data set [3] (setting [9]) it was 15 nM. Moreover, the thermodynamic solubility in data set [4] is 11 µM (≈ 4.6 µg/mL).

In the case of `Cc1c(Cc2ccccc2)nnc(N2CCN(c3cnc(C(C)(C)O)cn3)[C@@H](C)C2)c1C` [Example 90], the IC50 was 1 nM in data set [1] (setting [7]), 34 nM in data set [1] (setting [8]), 6 nM in data set [2] (setting [9]) and 7 nM in data set [3] (setting [9]). In data set [4], this compound registered a thermodynamic solubility of 18 µM (≈ 7.79 µg/mL).

Regarding `CC[C@@H]1CN(c2nnc(Cc3ccccc3)c(C)c2C)CCN1c1cnc(C(C)(C)O)cn1` [Example 91], the IC50 in data set [1] (setting [7]) is 5 nM; in data set [1] (setting [8]) it was 57 nM; in data set [2] (setting [9]) it was 8 nM; in data set [3] (setting [9]) it was 8 nM.

`C[C@@H]1CN(c2nnc(Cc3ccccc3)c3c2CCC3)CCN1c1cnc(C(C)(C)O)cn1` [Example 93]: the IC50 in data set [1] (setting [7]) is 1 nM; in data set [1] (setting [8]), 14 nM; in data set [2] (setting [9]) it was 1 nM; in data set [3] (setting [9]), 3 nM. In data set [4], this compound returned a thermodynamic solubility of 20 µM (≈ 8.89 µg/mL).

On to `CC(=O)c1cnc(N2CCN(c3nnc(Cc4ccccc4)c(C)c3C)C[C@H]2C)cn1` [Example 95, 1-[(R)-4-(6-Benzyl-4,5-dimethyl-pyridazin-3-yl)-2-methyl-3,4,5,6-tetrahydro-2H-[1,2]bipyrazinyl-5′-yl]-ethanone], for which the IC50 came to 8 nM in data set [1] (setting [7]), 110 nM in data set [1] (setting [8]), 8 nM in data set [2] (setting [9]) and 9 nM in data set [3] (setting [9]).

With `Cc1c(Cc2ccccc2)nnc(N2CCN(c3ncc(C(C)(C)O)c(C(F)(F)F)n3)[C@H](C)C2)c1C` [Example 96], the IC50 in data set [1] (setting [7]) came to 6 nM; in data set [1] (setting [8]), 62 nM; in data set [2] (setting [9]) it was 3 nM; in data set [3] (setting [9]), 4 nM.

For the compound `Cc1c(Cc2ccc(F)cc2)nnc(N2CCN(c3ncc(C(C)(C)O)c(C(F)(F)F)n3)[C@H](C)C2)c1C` [Example 97], the IC50 came out at 3 nM in data set [1] (setting [7]), 35 nM in data set [1] (setting [8]), 2 nM in data set [2] (setting [9]) and 2 nM in data set [3] (setting [9]).

Regarding `C[C@@H]1CN(c2nnc(Cc3ccccc3)c3c2CCC3)CCN1c1ncc(C(C)(C)O)c(C(F)(F)F)n1` [Example 98], the concentration for half-maximal inhibition (IC50) in data set [1] (setting [7]) stood at 11 nM; in data set [1] (setting [8]), 69 nM; in data set [2] (setting [9]), 6 nM; in data set [3] (setting [9]), 6 nM.

Consider `C[C@@H]1CN(c2nnc(Cc3ccc(F)cc3)c3c2CCC3)CCN1c1ncc(C(C)(C)O)c(C(F)(F)F)n1` [Example 99], for which the IC50 came out at 5 nM in data set [1] (setting [7]), 72 nM in data set [1] (setting [8]), 2 nM in data set [2] (setting [9]) and 3 nM in data set [3] (setting [9]).

Consider `CC(C)(O)c1ccc(N2CCN(c3nnc(Cc4ccc(F)cc4)c4c3CCCC4)CC2)nc1` [Example 104], for which the IC50 in data set [1] (setting [7]) was determined as 5 nM; in data set [1] (setting [8]) it was 70 nM; in data set [2] (setting [9]), 14 nM; in data set [3] (setting [9]) it was 9 nM.

Take `CC(C)(O)c1ccc(N2CCN(c3nnc(Cc4ccc(F)cc4)c4c3CCC4)CC2)nc1` [Example 105]: the IC50 in data set [1] (setting [7]) turned out to be 3 nM; in data set [1] (setting [8]) it was 35 nM; in data set [2] (setting [9]), 7 nM; in data set [3] (setting [9]), 6 nM.

With `Cc1c(Cc2ccc(F)cc2)nnc(N2CCN(c3ccc(C(C)(C)O)cn3)CC2)c1C` [Example 106], the IC50 in data set [1] (setting [7]) was 5 nM; in data set [1] (setting [8]), 76 nM; in data set [2] (setting [9]), 7 nM; in data set [3] (setting [9]), 5 nM.

For the compound `C[C@@H]1CN(c2nnc(Cc3ccccc3)c3c2CCC3)CCN1c1cc(C(F)(F)F)c(C(C)(C)O)cn1` [Example 107], the IC50 was 2 nM in data set [1] (setting [7]), 23 nM in data set [1] (setting [8]), 3 nM in data set [2] (setting [9]) and 3 nM in data set [3] (setting [9]).

For the compound `CC(=O)c1cnc(N2CCN(c3nnc(Cc4ccccc4)c4c3CCC4)C[C@H]2C)cc1C(F)(F)F` [Example 108], the IC50 is 4 nM in data set [1] (setting [7]) and 33 nM in data set [1] (setting [8]).

As for `C[C@@H]1CN(c2nnc(Cc3ccc(F)cc3)c3c2CCC3)CCN1c1cc(C(F)(F)F)c(C(C)(C)O)cn1` [Example 109], the IC50 came to 3 nM in data set [1] (setting [7]), 38 nM in data set [1] (setting [8]), 2 nM in data set [2] (setting [9]) and 2 nM in data set [3] (setting [9]).

Turning to `CCC(O)(CC)c1cnc(N2CCN(c3nnc(Cc4ccccc4)c(C)c3C)C[C@H]2C)cn1` [Example 111], the concentration for half-maximal inhibition (IC50) in data set [1] (setting [7]) was found to be 1 nM; in data set [1] (setting [8]), 18 nM; in data set [2] (setting [9]), 1 nM; in data set [3] (setting [9]) it was 2 nM.

For `Cc1c(Cc2ccccc2)nnc(N2CCN(c3cnc(C(C)(O)CO)cn3)[C@H](C)C2)c1C` (stereo partly drawn) [Example 144, 2-[(R)-4-(6-Benzyl-4,5-dimethyl-pyridazin-3-yl)-2-methyl-3,4,5,6-tetrahydro-2H-[1,2]bipyrazinyl-5′-yl]-propane-1,2-diol], the IC50 in data set [1] (setting [7]) is 5 nM; in data set [1] (setting [8]), 83 nM; in data set [2] (setting [9]), 24 nM; in data set [3] (setting [9]), 19 nM. The same compound displayed a solubility (thermodynamic) in data set [4] of 270 µM (≈ 121 µg/mL).
